Experimental findings from article PMC8224775, “Five Tetramic Acid Derivatives Isolated from the Iranian Fungus Colpoma quercinum CCTU A372” (Biomolecules, 2021) are described below.

pIC50: −log10 of the molar value. In brackets after ≈: the same amount, converted by molar mass. Marks after values point to notes of the source that are not given here.

Assay [1] has as its system Acinetobacter baumanii DSM 30008. Briefly: Antimicrobial serial dilution assay (MIC). It is filed as cell-based. As to conditions: Acinetobacter baumannii, DSM30008, serial dilution 67 to 0.5 µg/mL, overnight, read-out: MIC. Here is the method: (§1) Antimicrobial activity was determined by our established protocol, according to Becker et al.. In general, all of the pure compounds were dissolved in MeOH with a concentration of 1 mg/mL. Assessment of the antimicrobial activity was determined using the serial dilution assay method to calculate the minimum inhibitory concentration (MIC). In this method, the compounds were diluted in a range between 67 and 0.5 µg/mL in 96 well-plate and incubated with the test organism overnight. The next day, growth of the test organisms was visually observed, and MIC was determined in the lowest concentration where a clear zone (no growth of test organism) was observed. In our attempt for novel anti-infective compounds, an established standard protocol using various organisms representing a broad spectrum of pathogens of clinical interest, as well as sensitive indicator strains, was used (bacteria: Bacillus subtilis DSM 10, Staphylococcus aureus DSM 346, Acinetobacter baumanii DSM 30008, Chromobacterium violaceum DSM 30191, Escherichia coli DSM 1116 and Pseudomonas aeruginosa PA14; mycobacteria: Mycobacterium smegmatis ATCC 700084 and fungi: Candida albicans DSM 1665, Schizosaccharomyces pombe DSM 70572, Mucor hiemalis DSM 2656, Wickerhamomyces anomala DSM 6766 and Rhodotorula glutinis DSM 10134). Methanol as a solvent to dissolve the pure compounds was used as the negative control. Oxytetracycline, ciprofloxacin, gentamycin, and kanamycin were used as positive controls against bacteria, whereas nystatin was used against fungi. A detailed experimental procedure can be found in the SI.
(§2) Protocol: Antimicrobial Activity Assay
(§3) The assay was conducted as a minimum inhibitory concentration (MIC) assay in 96-well round- bottom microtiter plates using the parameters summarized in Table S1 and as already described in [S1]. Stocks of the test organisms were generated by growing the organisms overnight in 50 mL shaking flasks filled with 25 mL of the growth medium at 140r p m ( media and temperatures see Table S1). If the organisms were well grown the next day, which was checked by the occurrence of an optical density (OD) […] of the suspension (OD600 nm for bacteria, OD548 nm for fungi and M. smegmatis), aliquots of these were stored in 1.5 mL reaction tubes in a freezer at −80 °C for up to 12 months. Upon use, aliquots were unthawed and the OD of the suspension measured and adjusted by diluting with the respective growth medium. OD600 nm was adjusted to 0.01 and OD548 nm to 0.1. Subsequently, 150 μ L of the adj usted suspensions were added to all wells of a 96-well microtiter plate (one test organism per plate). In row A, additional 130 μ L of suspensions plus 20 μ L of the test compounds (1 mg/mL) and the controls (one compound/column) were added. MeOH was used as negative controls, while different positive controls (references) were used for the test organisms (see Table S1). Then, starting from row A, 150 μ L of t he suspension were transferred to the next row, the contents thoroughly mixed, and 150 μ L transferred to the following row. The remaining 150 μ L after row H were discarded. […]
(§4) of the test compounds, ranging from 66.7 μg/mL in row A to 0.52 μ g/mL in row H. The microtiter plates were then incubated overnight on a microplate shaker at 800 rpm at 30 or 37 °C (see Table S1) and were visually evaluated the next day. The MIC is defined as the lowest concentration where no growth of the test organism (clear zone) was observed. A lower MIC thus corresponds to a higher antimicrobial activity of the test compound.
(§5) Table S1: MIC assay experiment parameters test organism strain No growth incubation positive control […]
(§6) Candidaa lbicans DSM1665 MYC3 30 nystatin 1.0mg/ mL
(§7) Schizosaccharomyces DSM70572 MYC3 30 nystatin 1.0mg/ mL
(§8) Mucor hiemalis DSM2656 MYC3 30 nystatin 1.0mg/ mL
(§9) Wickerhamomyces DSM6766 MYC3 30 nystatin 1.0mg/ mL
(§10) Rhodotorula glutinis DSM10134 MYC3 30 nystatin 1.0mg/ mL
(§11) 1 MHB: Müller-Hinton Broth (SN X927.1, CarlRoth GmbH, Karlsruhe, Germany) […]

Assay [2] relates to ovarian carcinoma SK-OV-3. Nature of the assay: 5-day MTT cytotoxicity assay. Format: cell-based, human. Particulars: Homo sapiens, SK-OV-3, 120 h. On the procedure:
(§12) Cytotoxicity of compounds 1‒5 was initially determined against two cancer cell lines (mouse fibroblasts L-929 and human endocervical adenocarcinoma KB-3.1) by using a 5-day MTT assay according to an established procedure.
(§13) In 96-well flat-bottom microtiter plates, cell lines with serial dilution of the test compounds (final range: 37 to 0.6 × 10^−3 µg/mL) were incubated for five days. After five days, the cells were dyed using 3-(4,5-dimethyl-2-thiazolyl)-2,5-diphenyl-2H-tetrazolium bromide (MTT), which is only converted to its purple formazan derivative by living cells. The half-maximum inhibitory concentration (IC50 in µM) was calculated via the colorimetric method in a microplate reader using absorption at 595 nm. In addition, when an inhibition with an IC50 < 50 µM was observed, other cell lines were subjected to the test compounds to evaluate their further cytotoxicity: PC-3 (human prostate adenocarcinoma), SK-OV-3 (human ovary adenocarcinoma), MCF-7 (human breast adenocarcinoma), A-431 (human squamous carcinoma), and A549 (human lung carcinoma). A detailed procedure, including the colorimetric method to determine the cell viability, can be found in the SI.
(§14) Protocol: Cytotoxicity Assay
(§15) The assay was co nducted in 9 6-well flat -botto m microtiter plates using the parameters summarised in T able S2 and as described in [S2]. Cell l ines L-929 and KB-3.1 were incubated at 37 °C under 10 % CO2 in Gibco™ DMEM medium (T her mo Fisher Scientific, Waltham, M A, USA) supplemented with 10 % FBS. A microtiter plate was filled wit h 120 μ L o f this suspensio n (50,000/mL) in each well. Seperatel y, a nother microti ter plate wa s filled wit h 100 μL of gro wth medium in each well. Then, 50 μ L of the test compound solutions (1 mg/mL) were given to wells of the first column in two replicates (one compound per row). Cells without additives and MeOH were used as nega tive controls. Starting from the first column, 50 μ L of the solutions were gradually transferred to the next column, the contents thoroughly mixed, and 50 μL transferred to the following column. This created a serial dilution of the test compounds ranging from 333 μ g/mL to 1.9×10-3 μg/ mL. T he re mai ni ng 50 μ L after column twelve were discarded. From this microtiter plate, 60 μ L of the solutions fro m 111 μ g/mL to 1.9×10-3 μg/mL we r e give n to t he firs t p late co ntai ni ng 1 2 0 μ L of the cell suspensions (i.e. the highest co ncentration 333 μ g/ mL wa s no t used). T his resul ted in fi nal compo und concentratio ns rangi ng fro m 37 μ g/mL to 0.6×10-3 μg/ mL. After 5 days o f incubatio n under the aforementioned incubatio n conditions, the half maximu m inhibitory co ncentrations (IC50) were deter mined using a colorimetric tetrazolium d ye MT T assa y [S3]. For this, 20 μ L of a 5 mg/mL solution of 3-(4,5-dimethyl-2 -thiazolyl) -2,5-diphenyl-2H-tetrazolium br omide (MTT) were added to each well and incubated for two hours at 37 °C. T hen, the microtiter plate was ce ntrifuged (3,000 rpm, 5 min) and the supernatant removed by holding the plate upside-down and gentle shaking. Afterwards, the wells were washed using 100 μ L of phosphate buffered saline (PBS). T he plate was a gain ce ntrifuged a nd the supernata nt re mo ved as described before.
(§16) T hen, 1 0 0 μ L of an isopropanol:HCl solution (1L isopropanol+4 mL HCl 37 % w/v) were added to the wells. After incubating for 10 min at ambient temperature, the absorption of the wells at 595 nm was measured with an Infinite® 200 Pro microplate reader (TECAN, Männedorf, Schweiz). The absorption values of the cells without additives were averaged and set to 100 % cell viability. Then, the means of absorption of the two compound replicates were set in relation to the blank media. T hese percentage values were plotted against the concentratio n range (37 μ g/mL to 0.6×10−3 μg/ mL). T he IC50 value was r ead fro m the plot (in μ g/ mL) a nd the uni ts conversed […]
to μM. […]
In general terms: Formazan colour is commonly taken as a measure of viable cells.

Assay [3] relates to squamous cell carcinoma A-431. Briefly: 5-day MTT cytotoxicity assay. Format: cell-based, human. As to conditions: Homo sapiens, A-431, 120 h. Here is the method: as §12, §13, §14, §15, §16
to μM. […]

For assay [4], the system named is endocervical adenocarcinoma KB-3.1. Briefly: 5-day MTT cytotoxicity assay. Format: cell-based, human. As to conditions: Homo sapiens, KB 3-1, 120 h. Here is the method:
as §12, §13, §14, §15, §16
to μM. […]

In assay [5] the test system is human prostate cancer PC-3. Briefly: 5-day MTT cytotoxicity assay. Particulars: 120 h. Format: cell-based. On the procedure: as §12, §13, §14, §15, §16
to μM. […]

Assay [6] has as its system human lung carcinoma A-549. Nature of the assay: 5-day MTT cytotoxicity assay. Particulars: A549, 120 h. It is filed as cell-based. Here is the method: as §12, §13, §14, §15, §16
to μM. […]

Assay [7] relates to mouse fibroblast L-929. Briefly: 5-day MTT cytotoxicity assay. It is filed as cell-based. Particulars: Mus musculus, L929, 120 h. On the procedure:
as §12, §13, §14, §15, §16
to μM. […]

For assay [8], the system named is human breast adenocarcinoma MCF-7. Briefly: 5-day MTT cytotoxicity assay. Format: cell-based. As to conditions: Homo sapiens, MCF7, 120 h. On the procedure:
as §12, §13, §14, §15, §16
to μM. […]

Assay [9] relates to Rhodotorula glutinis DSM 10134. Briefly: Antimicrobial serial dilution assay (MIC). Format: cell-based. As to conditions: serial dilution 67 to 0.5 µg/mL, overnight. On the procedure: as §1, §2, §3, §4, §5, §6, §7, §8, §9, §10, §11
Assay [10] concerns Mucor hiemalis DSM 2656. Briefly: Antimicrobial serial dilution assay (MIC). Format: cell-based. Particulars: serial dilution 67 to 0.5 µg/mL, overnight. Here is the method: as §1, §2, §3, §4, §5, §6, §7, §8, §9, §10, §11
The subject of assay [11] is Pichia anomala DSM 6766. Briefly: Antimicrobial serial dilution assay (MIC). It is filed as cell-based. As to conditions: serial dilution 67 to 0.5 µg/mL, overnight. Here is the method:
as §1, §2, §3, §4, §5, §6, §7, §8, §9, §10, §11

In assay [12] the test system is Escherichia coli. Briefly: Antimicrobial serial dilution assay (MIC). As to conditions: serial dilution 67 to 0.5 µg/mL, overnight, read-out: MIC. Format: cell-based. On the procedure:
as §1, §2, §3, §4, §5
Escherichia coli DSM1116 MHB1 37 oxytetracyclin 1.0mg/ mL […]
as §6, §7, §8, §9
(§17) Rhodotorula glutinis DSM10134 MYC3 30 nystatin 1.0mg/ mL […]

The subject of assay [13] is Staphylococcus aureus DSM 346. Nature of the assay: Antimicrobial serial dilution assay (MIC). It is filed as cell-based. As to conditions: DSM346, serial dilution 67 to 0.5 µg/mL, overnight, read-out: MIC. Here is the method: as §1, §2, §3
of the test compounds, ranging from 66.7 μg/mL in row A to 0.52 μ g/mL in row H. The microtiter plates were then incubated overnight on a microplate shaker at 800 rpm at 30 or 37 °C (see Table S1) and were visually evaluated the next day. The MIC is defined as the lowest concentration where no growth of the test organism (clear zone) was observed. […]

The subject of assay [14] is Bacillus subtilis DSM 10. Nature of the assay: Antimicrobial serial dilution assay (MIC). As to conditions: DSM10, serial dilution 67 to 0.5 µg/mL, overnight, read-out: MIC. Format: cell-based. Here is the method: as §1, §2, §3, §4
Table S1: MIC assay experiment parameters test organism strain No growth incubation positive control
Bacillus subtilis DSM10 MHB1 30 oxytetracyclin 1.0mg/ mL […]
as §6, §7, §8, §9, §17

The MIC is the lowest concentration found to suppress growth. For `O=C(O)c1cn(C2CC2)c2cc(N3CCNCC3)c(F)cc2c1=O` [ciprofloxacin, reference compound], the minimal inhibitory concentration (MIC) in [1] came out at 0.26 µg/mL (≈ 0.785 µM).
What is called pIC50 is the IC50 on a negative log10 scale, so that one unit is a factor of ten. Read a high pIC50 as a small IC50. As for `C/C(=C\c1csc(C)n1)[C@@H]1C[C@@H]2O[C@]2(C)CCC[C@H](C)[C@H](O)[C@@H](C)C(=O)C(C)(C)[C@@H](O)CC(=O)O1` [epothilone B, reference compound], the pIC50 in [2] is 9.62; in assay [3], 10.08; in [4] it was 10.28; in [5], 9.57; in assay [6], 10.26; in assay [7] it was 9.08. The compound further had a negative-log IC50 (pIC50) in [8] of 10.15.
Consider `C[C@@H]1[C@H](O)[C@@H](C)/C=C/C=C/CC/C=C/C=C/C=C/C=C/C(O[C@H]2O[C@H](C)[C@@H](O)[C@H](N)[C@@H]2O)CC2O[C@](O)(CC(O)C(O)CCC(O)CC(O)CC(O)CC(=O)O[C@H]1C)CC(O)C2C(=O)O` (some centres unmarked) [nystatin, reference compound], for which the minimal inhibitory concentration (MIC) is on record as 1.0 ^b µg/mL in [9], 4.2 ^b µg/mL in assay [10] and 4.2 ^b µg/mL in assay [11].
With `CN(C)[C@@H]1C(O)=C(C(N)=O)C(=O)[C@@]2(O)C(O)=C3C(=O)c4c(O)cccc4[C@@](C)(O)[C@H]3[C@H](O)[C@@H]12` [oxytetracycline, reference compound], the values for the MIC in assay [12], in assay [13] and in assay [14] were 1.7 µg/mL (≈ 3.69 µM), 1.7 µg/mL (≈ 3.69 µM) and 8.3 µg/mL (≈ 18 µM), respectively.
